The test relates to fibrous adhesions between the caecum and the sidewall. Description: Rat caecal-sidewall surgical adhesion model, drug loaded hyaluronic acid film (Example 1). It counts as in vivo. The note with it: for inhibition of all adhesions (zero on the Total Adhesion Value scale) in at least one test animal: agent administered to the cecal-sidewall site.

The text below walks through data of patent US20170252367A1, “PHARMACEUTICAL COMPOSITIONS AND METHODS RELATING TO INHIBITING FIBROUS ADHESIONS OR INFLAMMATORY DISEASE USING LOW SULPHATE FUCANS” (ARC Medical Devices, Inc., priority 2004, published 2017).

Where a name gives a salt, the structure may show the parent alone.

Source text: In one embodiment, the efficacy of the given drug or drug combination can be assessed as a reduction of the average Total Adhesion Value (strength×area; “TAV”) of the drug or combination versus a given standard, for example a drug-loaded sodium hyaluronate film versus a sham or a sodium hyaluronate film alone in the rat cecal-sidewall model for surgical fibrous adhesions.
The rat caecal sidewall model of surgical adhesions was used to investigate the effect of administration of each agent discussed herein (hereafter referred to as the drug) for the prevention of post-surgical type of fibrous adhesions. In this model, rats were divided into groups of 4. After surgical trauma, the rats were either untreated, treated with crosslinked hyaluronic acid (HA) film, or crosslinked HA film containing drug at the following concentrations in the film (% w/w):
Animal Studies. […] Only animals that appeared grossly normal (i.e., showing a clean unruffled coat, bright clear eyes and an active posture) were used in the study. Animals were randomly assigned to treatment groups, weighed and anesthetized with isoflurane gas. The abdomen was shaved and cleaned with a skin-antibacterial cleanser (Steri-Stat 2%) and wiped with a chlorohexane soaked gauze. A nick was made in one of the tail veins to elicit a small amount of blood (<100 mL). A white blood cell count was performed on this blood sample. An antibiotic (40,000 IU/kg of depopenicillin) was injected into the right thigh and an analgesic (0.01 mg/kg of buprenorphine) was injected into the left thigh of each rat. A 4 cm incision was made in the skin beginning approximately 2 cm caudal to the linea alba while the muscle was tended with forceps. […] Scraping was in the opposite direction to which the blade was pointing. The scraped caecum was wrapped in saline-soaked gauze. Doynes were used to separate the peritoneal wall from the skin, and the peritoneal wall was inverted using the doynes to expose the inside of the wall. A rectangular injury roughly 1.2 cm by 1.8 cm was made by shallow incisions to the peritoneal wall. The top membrane and a layer of muscle tissue was removed using forceps. The caecum was stitched to the four corners of the rectangle using a 5-0 suture, and without tying off the top two stitches. A piece of film was placed onto the abraded rectangle and then the top two stitches were tied firmly. In the case of the untreated control group, no film was placed over the abraded site. The exposed organs were replaced in the abdomen in such a way as to prevent torsional stress on the intestines. […] A collar was placed around the neck of the animal to prevent it from interfering with the stitches. The rat was placed in a clean cage and warmed with a heating lamp until consciousness was regained.

For `N.N.[Cl][Pt][Cl]` [cisplatin, Cisplatin], the “inhibition of all adhesions (zero on the Total Adhesion Value scale) in at least one test animal” value (from here on “inhibition of all adhesions”) is “completely inhibited fibrous adhesions”. In addition, for the setting “2% w/w in HA film”, the “reduction in adhesion score versus control, one-tailed Student's t-test (p<0.05)” value (shortened to “reduction … (p<0.05)”) is given as “statistically significant”.
`CC(=O)O[C@@]12CO[C@@H]1C[C@H](O)[C@@]1(C)C(=O)[C@H](O)C3=C(C)[C@@H](OC(=O)[C@H](O)[C@@H](NC(=O)OC(C)(C)C)c4ccccc4)C[C@@](O)([C@@H](OC(=O)c4ccccc4)[C@H]21)C3(C)C` [docetaxel, Docetaxel]: the “inhibition of all adhesions” value is on record as “completely inhibited fibrous adhesions”.
Turning to `CCOC(=O)[C@H](CCc1ccccc1)N[C@@H](C)C(=O)N1CCC[C@H]1C(=O)O` [enalapril maleate, Enalapril Maleate], the “reduction … (p<0.05)” value (5% w/w in HA film) was “statistically significant”.
Regarding `CC[C@H]1OC(=O)[C@H](C)[C@@H](O[C@H]2C[C@@](C)(OC)[C@@H](O)[C@H](C)O2)[C@H](C)[C@@H](O[C@@H]2O[C@H](C)C[C@H](N(C)C)[C@H]2O)[C@](C)(O)C[C@@H](C)C(=O)[C@H](C)[C@@H](O)[C@]1(C)O` [erythromycin, Erythromycin], the “reduction … (p<0.05)” value (5% w/w in HA film) is given as “statistically significant”.
Turning to `CN(Cc1cnc2nc(N)nc(N)c2n1)c1ccc(C(=O)N[C@@H](CCC(=O)O)C(=O)O)cc1` [methotrexate, Methotrexate], the “inhibition of all adhesions” value is on record as “completely inhibited fibrous adhesions”.
